{
  "source": "BindingDB's records for doi:10.3109/14756366.2012.680062",
  "about": "(Shandong University, 2013)",
  "data": [
    {"molecular_target": "T1, Aminopeptidase N (Sus scrofa, UniProt P15145)", "T1 sequence (P15145 whole entry)": "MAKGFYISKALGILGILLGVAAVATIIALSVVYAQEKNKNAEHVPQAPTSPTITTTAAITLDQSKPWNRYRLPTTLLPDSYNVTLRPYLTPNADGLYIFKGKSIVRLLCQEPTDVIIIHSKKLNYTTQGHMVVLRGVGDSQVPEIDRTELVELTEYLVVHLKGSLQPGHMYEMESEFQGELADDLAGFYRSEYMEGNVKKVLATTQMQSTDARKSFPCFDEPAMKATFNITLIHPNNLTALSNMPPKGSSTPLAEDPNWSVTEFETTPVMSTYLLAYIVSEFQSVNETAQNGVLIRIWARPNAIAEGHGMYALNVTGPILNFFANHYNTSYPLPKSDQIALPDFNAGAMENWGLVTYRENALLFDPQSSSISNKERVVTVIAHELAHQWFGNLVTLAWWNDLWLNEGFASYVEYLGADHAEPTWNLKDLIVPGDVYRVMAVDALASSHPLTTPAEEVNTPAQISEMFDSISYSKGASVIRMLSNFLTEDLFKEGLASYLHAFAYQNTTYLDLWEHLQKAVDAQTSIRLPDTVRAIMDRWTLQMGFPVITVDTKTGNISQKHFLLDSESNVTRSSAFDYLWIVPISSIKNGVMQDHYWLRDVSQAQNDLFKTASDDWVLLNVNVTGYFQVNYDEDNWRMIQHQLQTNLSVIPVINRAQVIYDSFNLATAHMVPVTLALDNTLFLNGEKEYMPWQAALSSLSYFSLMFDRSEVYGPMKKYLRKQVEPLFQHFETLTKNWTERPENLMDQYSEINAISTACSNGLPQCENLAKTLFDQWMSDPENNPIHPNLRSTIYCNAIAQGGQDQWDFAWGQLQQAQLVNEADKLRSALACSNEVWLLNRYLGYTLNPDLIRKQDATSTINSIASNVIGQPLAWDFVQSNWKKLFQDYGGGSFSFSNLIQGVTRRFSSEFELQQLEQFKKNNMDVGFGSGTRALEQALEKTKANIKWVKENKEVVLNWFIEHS", "assay": "In Vitro APN Inhibition Assay", "conditions": "pH 7.2", "units": {"IC50": "µM"}, "values": [
      {"smiles": "CC(C)[C@H](NC(=O)[C@H](Cc1ccccc1)NC(=O)[C@@H](O)CN)C(=O)O", "note": "[L-isoserine-L-phenylalanine-L-valine (16b)]", "IC50": 94},
      {"smiles": "CC(C)C[C@H](NC(=O)[C@@H](O)CN)C(=O)N[C@H](C(=O)O)C(C)C", "note": "[L-isoserine-L-leucyl-L-valine (16i)]", "IC50": 5.16},
      {"smiles": "CC(C)C[C@H](NC(=O)[C@H](Cc1ccc(O)cc1)NC(=O)[C@@H](O)CN)C(=O)O", "note": "[L-isoserine-L-tyrosinase-L-leucyl (16l)]", "IC50": 2.51},
      {"smiles": "NC[C@H](O)C(=O)N[C@H](C(=O)N[C@@H](Cc1ccccc1)C(=O)O)c1ccccc1", "note": "[L-isoserine-L-phenylglycine-L-phenylalanine (16g)]", "IC50": 5.8},
      {"smiles": "CCC(C)[C@H](NC(=O)[C@H](Cc1ccccc1)NC(=O)[C@@H](O)CN)C(=O)O", "note": "(stereo partly drawn) [2-[2-(3-amino-2-hydroxypropanamido)-3-phenylpropanamido]-3-methylpentanoic acid (16a)]", "IC50": 30.4},
      {"smiles": "CC(C)C[C@H](NC(=O)[C@@H](O)CN)C(=O)N[C@@H](Cc1ccc(O)cc1)C(=O)O", "note": "[L-isoserine-L-eucyl-L-tyrosinase (16m)]", "IC50": 17.5},
      {"smiles": "CC(C)[C@H](NC(=O)[C@@H](NC(=O)[C@@H](O)CN)C(C)C)C(=O)O", "note": "[L-isoserine-L-valine-L-valine (16f)]", "IC50": 13.6},
      {"smiles": "CC(C)[C@H](NC(=O)[C@@H](O)CN)C(=O)N[C@@H](Cc1ccccc1)C(=O)O", "note": "[L-isoserine-L-valine-L-phenylalanine (16d)]", "IC50": 30.2},
      {"smiles": "CC(C)C[C@H](NC(=O)[C@@H](NC(=O)[C@@H](O)CN)C(C)C)C(=O)O", "note": "[L-isoserine-L-valine-L-leucyl (16h)]", "IC50": 6.5},
      {"smiles": "CC(C)[C@H](NC(=O)[C@H](Cc1ccc(O)cc1)NC(=O)[C@@H](O)CN)C(=O)O", "note": "[L-isoserine-L-tyrosinase-L-valine (16e)]", "IC50": 11.5},
      {"smiles": "NC[C@H](O)C(=O)N[C@@H](Cc1ccccc1)C(=O)N[C@@H](Cc1ccccc1)C(=O)O", "note": "[L-isoserine-L-phenylalanine-L-phenylalanine (16n)]", "IC50": 6.5},
      {"smiles": "CC(C)C[C@H](NC(=O)[C@@H](NC(=O)[C@@H](O)CN)c1ccccc1)C(=O)O", "note": "[L-isoserine-L-phenylglycine-L-leucyl (16k)]", "IC50": 11.6},
      {"smiles": "CC(C)[C@H](NC(=O)[C@@H](NC(=O)[C@@H](O)CN)c1ccccc1)C(=O)O", "note": "[L-isoserine-L-phenylglycine-L-valine (16c)]", "IC50": 51.5}
    ]}
  ]
}
